Experimental data: paper PMC12598866, “A Comparative Study of Virucidal and Virustatic Multivalent Entry Inhibitors” (The Journal of Physical Chemistry. B, 2025)
Read-outs that look alike come from different tables or passages of the source.

Columns and labels:
[1] = Cytotoxicity assay for MDCK (MTT); type: cell-based; details: dog, MDCK cells
Experimental: MTT assay was used to evaluate the cytotoxicity on MDCK cells. 10^4 cells per well were seeded in a 96-well plate 1 day before the assay. A dose range of each drug (from 4.11 μM to 1000 μM) was added to the cells in serum-free medium for MDCK cells. The antivirals were incubated on the cells for 24 h at 37 °C. After incubation, the cells were washed, and MTT reagent (Promega) was added to the cells for 4 h at 37 °C according to the manufacturer’s instructions. The cells were then washed, and 50 μL of DMSO was added to free the reagent. Subsequently, the absorbance was read at 579 nm. Percentages of viability were calculated by comparing the absorbance in treated wells and untreated conditions.

HSV-2 [2] = experiment: Growth of viruses in the presence of compounds (posttreatment), HSV-2; type: cell-based, herpes simplex virus type 2; details: for IC50: Human alphaherpesvirus 2, Vero, posttreatment condition, Vero cells
[3] = CMC assay (conductivity method); type: physicochemical; details: in water
Experimental: The CMC of antiviral compounds was measured by the conductivity method. Antiviral compounds were diluted into water at different concentrations, and the conductivity (μS/cm) was measured at each concentration with a conductivity meter (Mettler Toledo, Switzerland). The CMC was identified as the point on the conductivity-concentration plot where the slope changed.

H3N2 [4] = experiment: microbe, parasite or virus in culture; type: cell-based; details: Influenza A virus, posttreatment condition, MDCK cells
H3N2 [5] = experiment: Influenza inhibition assay (ICC on MDCK cells, pretreatment); type: cell-based; details: Influenza A virus
HSV-2 [6] = experiment: HSV-2 inhibition assay (plaque reduction on Vero cells, pretreatment); type: cell-based, herpes simplex virus type 2; details: for IC50: Human alphaherpesvirus 2, Vero, dose–response, Vero cells
Experimental: The inhibitory effect of compounds on HSV-2 was evaluated by plaque reduction assay. Vero cells were plated 24 h before the experiment in 24-well plates with a seeding density of 10^5 cells/well. Serial dilutions of compounds in DMEM medium (2% FBS, 1% P/S) were prepared, followed by the addition of aliquots of HSV-2 such that the final titer of the virus was 200 pfu/mL (with MOI = 0.0005). Compounds/virus mixtures were incubated at 37 °C for 1 h and added to the cells (250 μL/well). Followed by incubation at 37 °C for 1 h, the viral inoculum was removed. The cells were overlaid with DMEM medium containing 1.2% methylcellulose, 2% FBS, and 1% P/S. After 48 h of incubation at 37 °C, 5% CO2, the cells were fixed and stained with 0.1% crystal violet in 20% ethanol. Finally, the plaques were counted. Each group of experiments in the inhibition assay was performed in triplicate. The concentration producing a 50% reduction in plaque formation was determined using Prism 10 software (GraphPad Software, USA) by comparing compound-treated and untreated cells. Infectivity was calculated as the number of plaques in compound-treated cells/number of plaques in untreated cells × 100%.

[7] = Cytotoxicity assay on Vero cells (MTS); type: cell-based; details: African green monkey
Experimental: Cytotoxicity assay was performed on the Vero cell line with the MTS assay. The cells were plated for 24 h in DMEM medium containing 10% FBS and 1% penicillin/streptomycin with a seeding density of 2 × 10^4 per well in a 96-well plate. […] Then, the cells were washed with PBS twice, followed by the addition of 20 μL MTS reagents together with 80 μL DMEM medium. They were then incubated at 37 °C for 4 h. The cell viability was checked by absorbance at 490 nm with a plate reader.

HSV-2 [8] = experiment: HSV-2 virucidal assay; type: cell-based, herpes simplex virus type 2; details: for inhibition mechanism against HSV-2 (in words): virucidal tests
HSV-2 [9] = experiment: HSV-2 inhibition assay (plaque reduction on Vero cells, pretreatment); type: cell-based, herpes simplex virus type 2; details: Human alphaherpesvirus 2, Vero, pretreatment condition
BSA = target: T1, BSA (Bos taurus, UniProt P02769); experiment: Isothermal titration calorimetry with BSA; type: binding, bovine; details: ITC
T1 construct: purchased Sigma-Aldrich
T1 sequence (P02769 25-607): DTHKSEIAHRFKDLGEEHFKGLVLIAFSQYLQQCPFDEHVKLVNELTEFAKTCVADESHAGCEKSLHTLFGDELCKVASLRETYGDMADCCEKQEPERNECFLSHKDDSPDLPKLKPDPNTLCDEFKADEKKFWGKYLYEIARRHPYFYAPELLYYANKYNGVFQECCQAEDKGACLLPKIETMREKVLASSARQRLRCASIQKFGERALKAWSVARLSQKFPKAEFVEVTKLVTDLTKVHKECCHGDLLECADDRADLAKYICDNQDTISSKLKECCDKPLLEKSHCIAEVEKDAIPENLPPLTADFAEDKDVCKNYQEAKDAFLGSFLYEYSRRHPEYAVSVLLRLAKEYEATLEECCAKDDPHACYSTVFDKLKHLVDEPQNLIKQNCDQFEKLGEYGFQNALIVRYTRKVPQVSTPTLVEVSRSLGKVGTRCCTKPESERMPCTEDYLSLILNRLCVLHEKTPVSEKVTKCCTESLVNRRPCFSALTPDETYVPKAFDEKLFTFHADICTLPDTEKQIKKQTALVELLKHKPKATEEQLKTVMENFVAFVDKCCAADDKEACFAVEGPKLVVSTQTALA

H1N1 clinical = experiment: Influenza inhibition assay (ICC on MDCK cells); type: cell-based; details: Influenza A virus, dose–response
H1N1N09 = experiment: Influenza inhibition assay (ICC on MDCK cells); type: cell-based, Influenza A/Netherlands/602/2009 (H1N1); details: Influenza A virus, dose–response
[10] = target: glycoprotein D (gD) of HSV; experiment: Isothermal titration calorimetry with glycoprotein D; type: binding; details: ITC, 25°C
Experimental: Isothermal titration calorimetry (ITC) experiments were conducted using ITC200 instruments (GE Healthcare, USA) equipped with a 200 μL sample cell and a 40 μL syringe. Thirteen injections were applied. The first data point was excluded. BSA protein and viral protein concentrations in the cell were approximately 50 μM and 1 mg/mL, respectively, and ligand concentrations in the syringe were roughly 2 mM. They were centrifuged at 2000g for 2 min to remove bubbles. The titration was performed at 25 or 37 °C, with data analyzed using MicroCal PEAQ ITC software. Baseline correction was applied, and Nitpic/Sedphat was used for automated integration to ensure precise binding parameter determination.

[11] = system: NO production in RAW 264.7 cells; experiment: NO production in LPS-stimulated macrophages; type: cell-based; details: Mus musculus, RAW264.7; RAW 264.7 pretreated 2 h with MEIs, then LPS 1 μg/mL for 24 h
Experimental: To evaluate the anti-inflammatory potential of MEIs, we investigated their ability to reduce the level of NO production in macrophages. RAW 264.7 cells were pretreated with the different concentrations of MEIs for 2 h, followed by stimulation with lipopolysaccharide (LPS) (1 μg/mL) for 24 h to induce inflammation. […] However, cotreatment with MEIs led to a reduction in NO levels, confirming their anti-inflammatory effect.

[12] = dose–response, read-out: IC50 H3N2
[13] = pretreatment condition, read-out: pretreatment IC50, H3N2
[14] = H2O, 25 °C (Table 5), read-out: K d (BSA)
[15] = HSV-2 inhibition, concentration intended to inhibit infection by at least 90 and 99%

Row | SMILES | CC50 at 24 h [1] [µM] | IC50 (HSV-2 [2]) [µM] | CMC [3] [µM] | IC50 (H3N2 [4]) [µM] | IC50 (H3N2 [5]; [12]) [µM] | IC50 (H3N2 [5]; [13]) [µM] | IC50 (HSV-2 [6]) [µM] | CC50 at 48 h [7] [µM] | inhibition mechanism against HSV-2 (in words) (HSV-2 [8]) | IC50 (HSV-2 [9]) [µM] | ΔG (BSA) (BSA; H2O, 25 °C (Table 5)) | ΔH (BSA) (BSA; H2O, 25 °C (Table 5)) | –ΔTS (BSA) (BSA; H2O, 25 °C (Table 5)) | Kd (BSA; [14]) [µM] | IC50 (H1N1 clinical) [µM] | IC50 (H1N1N09) [µM] | Kd [10] [µM] | IC50 [11] [µM] | IC99 (HSV-2 [6]; [15]) [µM] | -∆TS (BSA) (BSA; PBS, 25 °C (Table S3)) [kcal/mol] | also measured
1 | O=S(=O)(O)CCCCCCCCCCCSCc1cc(CSCCCCCCCCCCCS(=O)(=O)O)cc(CSCCCCCCCCCCCS(=O)(=O)O)c1 [B3C11SO3] | > 415 | 10.3 ± 1.17 | 497 ± 20.9 | 24.8 ± 1.2 | 49.5 ± 8.7 | 49.5 ± 8.7 | 88.5 ± 7.6 | > 546 | virustatic | 88.5 ± 7.6 | –7.15 kcal/mol | –9.08 kcal/mol | 1.93 kcal/mol | 5.82 | 4.2 ± 0.36 | 35.2 ± 4.7 | 23.2 | – | – | – | fold reduction in IC50, posttreatment vs pretreatment (HSV-2 [2]; HSV-2): approximately 9 fold; IC99 (HSV-2 [6]): 1092 ± 7.6 µM; Virucidal/Virustatic, HSV-2 (HSV-2 [8]; concentration 300 uM): Virustatic; Virucidal/Virustatic, HSV-2 (HSV-2 [8]; concentration 500 uM): Virustatic; Virucidal activity, HSV-2 (HSV-2 [8]; virucidal titration at 90–99% viral inhibition concentration, Vero cells): S; -∆TS (BSA) (BSA; H2O, 25 °C (Table S3)): 1.93 kcal/mol; N (BSA) (BSA; H2O, 25 °C (Table S3)): 1.1; ∆G (BSA) (BSA; H2O, 25 °C (Table S3)): -7.15 kcal/mol; ∆H (BSA) (BSA; H2O, 25 °C (Table S3)): -9.08 kcal/mol; -∆TS (BSA) (BSA; H2O, 37 °C (Table S3)): 0.272 kcal/mol; Kd (BSA; H2O, 37 °C (Table S3)): 4.97 µM; N (BSA) (BSA; H2O, 37 °C (Table S3)): 0.838; ∆G (BSA) (BSA; H2O, 37 °C (Table S3)): -7.53 kcal/mol; ∆H (BSA) (BSA; H2O, 37 °C (Table S3)): -9.78 kcal/mol
2 | O=S(=O)(O)OCCCCCCCCCCCSCc1cc(CSCCCCCCCCCCCOS(=O)(=O)O)cc(CSCCCCCCCCCCCOS(=O)(=O)O)c1 [B3C11SO4] | 12.2 ± 0.94 | 18 ± 1.13 | 556 ± 35.1 | 8.6 | 0.6 ± 0.12 | 0.6 ± 0.12 | 43 ± 8.3 | 313 ± 28.7 | virucidal | 43 ± 8.3 | –7.71 kcal/mol | –5.4 kcal/mol | –2.31 kcal/mol | 2.23 | 0.7 ± 0.04 | 0.9 ± 0.05 | 28.2 | 152.8 ± 1.27 | 103.8 ± 8.3 | -9.86 | Kd (BSA; PBS, 25 °C (Table S3)): 3.8 µM; N (BSA) (BSA; PBS, 25 °C (Table S3)): 3.21; ∆G (BSA) (BSA; PBS, 25 °C (Table S3)): -7.46 kcal/mol; ∆H (BSA) (BSA; PBS, 25 °C (Table S3)): 2.46 kcal/mol; -∆TS (BSA) (BSA; PBS, 37 °C (Table S3)): -9.8 kcal/mol; Kd (BSA; PBS, 37 °C (Table S3)): 1.37 µM; N (BSA) (BSA; PBS, 37 °C (Table S3)): 2.58; ∆G (BSA) (BSA; PBS, 37 °C (Table S3)): -8.32 kcal/mol; ∆H (BSA) (BSA; PBS, 37 °C (Table S3)): 1.48 kcal/mol
3 | O=S(=O)(O)CCCCCCCCCCCSCc1cc2c(cc1CSCCCCCCCCCCCS(=O)(=O)O)OCCOCCOc1cc(CSCCCCCCCCCCCS(=O)(=O)O)c(CSCCCCCCCCCCCS(=O)(=O)O)cc1OCCOCCO2 [C4C11SO3] | 202.3 ± 0.76 | 12.3 ± 0.76 | 237 ± 17.1 | 52.6 ± 0.5 | 6.4 ± 1.03 | 40.9 ± 1.19 | 18.5 ± 5.2 | > 358 | virucidal | 9.8 ± 1.5 | –6.81 kcal/mol | –0.934 kcal/mol | –5.88 kcal/mol | 10.3 | 10.4 ± 3.34 | 15.8 ± 3.1 | 83.5 | 173.8 ± 1.52 | 408 ± 1.5 | -2.06 | Virucidal/Virustatic, HSV-2 (HSV-2 [8]; concentration 126.3 uM): Virucidal; Virucidal/Virustatic, HSV-2 (HSV-2 [8]; concentration 237.16 uM): Virucidal; Virucidal/Virustatic, HSV-2 (HSV-2 [8]; concentration 304 uM): Virucidal; N (binding sites, BSA) (BSA; H2O, 25 °C (Table 5)): 2.63; Kd (BSA; PBS, 25 °C (Table S3)): 124 µM; N (BSA) (BSA; PBS, 25 °C (Table S3)): 10; ∆G (BSA) (BSA; PBS, 25 °C (Table S3)): -5.33 kcal/mol; ∆H (BSA) (BSA; PBS, 25 °C (Table S3)): -1.58 kcal/mol; -∆TS (BSA) (BSA; PBS, 37 °C (Table S3)): -7.9 kcal/mol; Kd (BSA; PBS, 37 °C (Table S3)): 1.64 µM; N (BSA) (BSA; PBS, 37 °C (Table S3)): 2.6; ∆G (BSA) (BSA; PBS, 37 °C (Table S3)): -8.21 kcal/mol; ∆H (BSA) (BSA; PBS, 37 °C (Table S3)): -0.315 kcal/mol
4 | O=S(=O)(O)OCCCCCCCCCCCSCc1cc2c(cc1CSCCCCCCCCCCCOS(=O)(=O)O)OCCOCCOc1cc(CSCCCCCCCCCCCOS(=O)(=O)O)c(CSCCCCCCCCCCCOS(=O)(=O)O)cc1OCCOCCO2 [C4C11SO4] | > 194 | 4.8 ± 0.7 | 1003 ± 24.6 | 18.3 ± 0.75 | 40.9 ± 1.19 | 6.4 ± 1.03 | 9.8 ± 1.5 | > 657 | – | 18.5 ± 5.2 | –6.07 kcal/mol | –2.73 kcal/mol | –3.34 kcal/mol | 35.7 | > 202 | 80.9 ± 13.7 | 141 | 66.1 ± 1.23 | 67.47 ± 5.2 | -3.6 | N (binding sites, BSA) (BSA; H2O, 25 °C (Table 5)): 2.5; Kd (BSA; PBS, 25 °C (Table S3)): 161 µM; N (BSA) (BSA; PBS, 25 °C (Table S3)): 10; ∆G (BSA) (BSA; PBS, 25 °C (Table S3)): -5.18 kcal/mol; ∆H (BSA) (BSA; PBS, 25 °C (Table S3)): -1.58 kcal/mol; -∆TS (BSA) (BSA; PBS, 37 °C (Table S3)): -4.71 kcal/mol; Kd (BSA; PBS, 37 °C (Table S3)): 8.47 µM; N (BSA) (BSA; PBS, 37 °C (Table S3)): 7.6; ∆G (BSA) (BSA; PBS, 37 °C (Table S3)): -7.2 kcal/mol; ∆H (BSA) (BSA; PBS, 37 °C (Table S3)): -2.49 kcal/mol
